From patent publication US9782364B1, “Curcumin-based compositions and methods of use thereof” (priority 2015, dated 2017)

How the values were obtained:
[1] = tested on: NFkB-p65; test: Western blot of cytoplasmic and nuclear NFkB-p65 and phospho-serine 276 NFkB-p65 in LPS-induced BV2 microglia; type: cell-based; settings: BV2 cells, 22.0 μg/ml, 30 min pre-treatment then LPS 30 min; for inhibition of NFkB-p65 nucleotranslocation (cytosolic and nuclear NFkB-p65 levels): FIGS. 3 and 4; for inhibition of NFkB-p65 serine 276 phosphorylation: cytoplasmic and nuclear, FIGS. 5 and 6
Method: (§1) Western blot analysis was performed in multiple varying formats before optimization was achieved. The BV2 microglia cell line was cultured in Dulbecco's Modified Eagle's Medium (DMEM)—complete medium. The complete medium consisted of DMEM, 1% Ampicillin, and 10% Fetal Bovine Serum (FBS). BV2 microglia cells, at a cell count of approximately 2×10^6, were seeded in each well (6 wells per plate) with 2.0 ml complete medium and cultured overnight in a ThermaForma HepaFilter Series II Coe Incubator at 37° Celsius. Upon establishing confluence, subconfluent cells were washed out and the wells were prepared with drug pre-treatment after overnight incubation.
(§2) The test drugs (curcuminoids) were procured as follows: curcumin I research standard (03926) (ChromaDex Irvine, Calif. USA) (97.7% purity); curcumin II research standard (04230) (ChromaDex Irvine, Calif. USA) (97.3%); curcumin III research standard (B6938) (Sigma-Aldrich St. Louis, Mo., USA) (97.7% purity); curcumin extract (curcumin I—77.7%, curcumin II—16.9%, curcumin III—0.9%) research standard (03928) (ChromaDex Irvine, Calif. USA) (95.3% purity); and Lipopolysaccharide (LPS) from E. Coli (L2630) (Sigma-Aldrich St. Louis, Mo., USA).
Curcuminoids are not soluble in aqueous medium due to their hydrophobic characteristic. However, curcuminoid extracts are soluble in polar organic solvents, such as DMSO and acetone. In this Example, each curcuminoid preparation was first dissolved in DMSO. DMSO was used in the drug preparation at 0.2%. The drug/DMSO solution was subsequently dissolved in DMEM to achieve a final drug concentration for each curcuminoid preparation tested—22.0 μg/ml curcuminoid. The DMEM/drug solution was used to replace the culture DMEM well medium and incubated for 30 minutes at 37-degrees Celsius in a ThermaForma incubator. At 31 minutes, lipopolysaccharide (LPS at […] final well concentration) induction of the cells was executed, except for the DMSO-only well to stimulate cell response amidst drug pre-treatment and without drug treatment.
The plates were then incubated for another 30 minutes after LPS stimulation. Upon removal from incubation, the cell medium was carefully removed and cells were washed, scraped, and collected with phosphate-buffered saline (PBS). Using a ThermoFisher Scientific NE-PER Nuclear and Cytoplasmic Extraction Kit (obtained from ThermoFisher Scientific Burlington, Ontario Canada), the cells were lysed and the cytoplasmic and nuclear protein fractions were collected and separated with the intention of probing each fraction for subcellular changes in cytoplasmic and nuclear proteins (as described further below).
Total protein concentration for each fraction was determined using a Bio Rad Protein Assay that is based on the Bradford Assay (dye-binding method). The total protein concentration determination was made prior to test sample preparation for gel electrophoresis execution (described below). The protein concentration colorimetric assay kit was purchased from Bio Rad Laboratories Canada Ltd. (Montreal, Quebec Canada). Each test sample was then prepared for loading and subjected to gel electrophoresis (SDS-PAGE) using a BioRad stain free gel system (Catalog No. 161-0181) and subsequently transferred/blotted to a nitrocellulose membrane (ThermoFisher Scientific Product No. 88018), blocked, and prepared for primary antibody treatment for each target.
The targets analyzed in the Western Blot included NFkB-p65 and its nucleocytoplasmic translocation, as well as kinases (including MSK1) and their covalent modifications upstream of and involved in the regulation of NFkB. Antibodies against NFkB-p65 (Ab16502) were procured from Abcam Inc. (Toronto, Ontario, Canada) as a primary antibody to probe for total NFkB-p65 levels in both nuclear and cytoplasmic fractions. […]

[2] = biological target: T1, MSK1 (Mus musculus, UniProt Q8C050); test: Western blot of cytoplasmic and nuclear MSK1 and phospho-serine 376 MSK1 in LPS-induced BV2 microglia; type: cell-based; settings: BV2 cells, 22.0 μg/ml, 30 min pre-treatment then LPS 30 min
T1 construct: the cells were lysed and the cytoplasmic and nuclear protein fractions were collected; endogenous in cells; host or cells: BV2 microglia, LPS-induced
Method: as §1, §2
Curcuminoids are not soluble in aqueous medium due to their hydrophobic characteristic. However, curcuminoid extracts are soluble in polar organic solvents, such as DMSO and acetone. In this Example, each curcuminoid preparation was first dissolved in DMSO. DMSO was used in the drug preparation at 0.2%. The drug/DMSO solution was subsequently dissolved in DMEM to achieve a final drug concentration for each curcuminoid preparation tested—22.0 μg/ml curcuminoid. […]
Total protein concentration for each fraction was determined using a Bio Rad Protein Assay that is based on the Bradford Assay (dye-binding method). […]
The targets analyzed in the Western Blot included NFkB-p65 and its nucleocytoplasmic translocation, as well as kinases (including MSK1) and their covalent modifications upstream of and involved in the regulation of NFkB. […]

T1 sequence (Q8C050 whole entry): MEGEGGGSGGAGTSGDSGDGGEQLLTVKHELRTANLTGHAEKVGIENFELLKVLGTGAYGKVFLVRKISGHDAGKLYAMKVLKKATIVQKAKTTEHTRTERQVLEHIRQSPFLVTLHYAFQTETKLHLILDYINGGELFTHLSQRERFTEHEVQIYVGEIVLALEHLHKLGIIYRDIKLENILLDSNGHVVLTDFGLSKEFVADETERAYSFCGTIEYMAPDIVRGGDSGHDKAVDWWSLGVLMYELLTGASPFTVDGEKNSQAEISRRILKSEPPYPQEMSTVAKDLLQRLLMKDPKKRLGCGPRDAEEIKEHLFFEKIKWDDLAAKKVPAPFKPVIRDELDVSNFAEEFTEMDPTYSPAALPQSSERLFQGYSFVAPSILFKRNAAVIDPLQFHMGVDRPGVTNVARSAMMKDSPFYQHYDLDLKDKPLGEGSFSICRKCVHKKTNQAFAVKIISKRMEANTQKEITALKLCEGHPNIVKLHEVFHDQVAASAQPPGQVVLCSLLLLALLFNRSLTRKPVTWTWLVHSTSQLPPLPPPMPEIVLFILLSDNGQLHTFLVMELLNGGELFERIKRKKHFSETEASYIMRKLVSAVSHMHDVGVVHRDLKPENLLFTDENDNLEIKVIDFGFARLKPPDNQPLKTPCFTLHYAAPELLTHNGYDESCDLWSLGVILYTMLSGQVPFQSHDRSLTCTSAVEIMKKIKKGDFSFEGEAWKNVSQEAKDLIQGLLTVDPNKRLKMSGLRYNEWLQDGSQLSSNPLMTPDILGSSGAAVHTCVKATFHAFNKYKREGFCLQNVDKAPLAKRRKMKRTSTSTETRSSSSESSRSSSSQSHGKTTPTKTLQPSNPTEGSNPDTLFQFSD

Row | inhibition of MSK1 serine 376 phosphorylation ([2]; cytoplasmic and nuclear, FIGS. 9 and 10) | SMILES | inhibition of NFkB-p65 nucleotranslocation (cytosolic and nuclear NFkB-p65 levels) [1] | inhibition of NFkB-p65 serine 276 phosphorylation [1] | inhibition of MSK1 protein levels in the cytoplasm ([2]; FIG. 7) | inhibition of MSK1 protein levels in the nucleus ([2]; FIG. 8)
1 | inhibit | COc1cc(/C=C/C(=O)CC(=O)/C=C/c2ccc(O)cc2)ccc1O [curcumin II, (1E,6E)-1-(4-Hydroxy-3-methoxyphenyl)-7-(4-hydroxyphenyl)hepta-1,6-diene-3,5-dione] | not significantly inhibited | moderately inhibit | – | –
2 | – | O=C(/C=C/c1ccc(O)cc1)CC(=O)/C=C/c1ccc(O)cc1 [curcumin III, (1E,6E)-1,7-bis(4-hydroxyphenyl)hepta-1,6-diene-3,5-dione] | not significantly inhibited | moderately inhibit | significantly inhibited and downregulated | significantly inhibited and downregulated
3 | – | COc1cc(/C=C/C(=O)/C=C(O)/C=C/c2ccc(O)c(OC)c2)ccc1O [curcumin I, (1E,6E)-1,7-Bis(4-hydroxy-3-methoxyphenyl)-1,6-heptadiene-3,5-dione] | not significantly inhibited | moderately inhibit | – | –
